The supplement of paper PMC9663587

Key:
Test in all cases: GR value, 72 h; higher = faster growth (1 = untreated, <0 = killing);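 note: breast cancer and non-malignant breast epithelial lines, nine half-log doses, viable cells counted by Hoechst and LIVE/DEAD dye imaging versus time-zero plates and DMSO controls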
[1] = compound: CN(C)C/C=C/C(=O)Nc1ccc(C(=O)N2CCC[C@@H](Nc3ncc(Cl)c(-c4c[nH]c5ccccc45)n3)C2)cc1 [THZ531]
[2] = compound: C=CC(=O)Nc1ccc(C(=O)Nc2[nH]nc3c2CN(C(=O)N[C@H](CN(C)C)c2ccccc2)C3(C)C)cc1 [YKL-5-124]
[3] = compound: CCN1CCN(Cc2ccc(Nc3ncc(F)c(-c4cc(F)c5nc(C)n(C(C)C)c5c4)n3)nc2)CC1
[4] = compound: CCc1cnn2c(NCc3ccc[n+]([O-])c3)cc(N3CCCC[C@H]3CCO)nc12
[5] = compound: CC(=O)c1c(C)c2cnc(Nc3ccc(N4CCNCC4)cn3)nc2n(C2CCCC2)c1=O
[6] = compound: CCOc1cc2ncc(C#N)c(Nc3ccc(OCc4ccccn4)c(Cl)c3)c2cc1NC(=O)/C=C/CN(C)C [Neratinib/HKI272]

Cell Line: EFM19
- GR value ([1]; 0.1 µM): 1 GR
- GR value ([1]; 0.3162 µM): 0.801 GR
- GR value ([1]; 1 µM): -0.59 GR
- GR value ([2]; 0.001 µM): 0.518 GR
- GR value ([2]; 0.003162 µM): 0.329 GR
- GR value ([2]; 0.01 µM): 0.259 GR
- GR value ([2]; 0.03162 µM): 0.219 GR
- GR value ([2]; 0.1 µM): 0.134 GR
- GR value ([2]; 0.3162 µM): 0.178 GR
- GR value ([2]; 1 µM): 0.106 GR
- GR value ([2]; 3.162 µM): 0.149 GR
- GR value ([2]; 10 µM): 0.0614 GR
- GR value ([3]; 0.001 µM): 0.984 GR
- GR value ([3]; 0.003162 µM): 0.967 GR
- GR value ([3]; 0.01 µM): 0.802 GR
- GR value ([3]; 0.03162 µM): 0.442 GR
- GR value ([3]; 0.1 µM): 0.359 GR
- GR value ([3]; 0.3162 µM): 0.337 GR
- GR value ([3]; 1 µM): 0.327 GR
- GR value ([3]; 3.162 µM): 0.359 GR
- GR value ([3]; 10 µM): 0.269 GR
- GR value ([4]; 0.0001 µM): 1.1 GR
- GR value ([4]; 0.0003162 µM): 1.09 GR
- GR value ([4]; 0.001 µM): 1.15 GR
- GR value ([4]; 0.003162 µM): 1.15 GR
- GR value ([4]; 0.01 µM): 1.05 GR
- GR value ([4]; 0.03162 µM): 0.509 GR
- GR value ([4]; 0.1 µM): -0.295 GR
- GR value ([4]; 0.3162 µM): -0.448 GR
- GR value ([4]; 1 µM): -0.534 GR
- GR value ([5]; 0.0003162 µM): 1.05 GR
- GR value ([5]; 0.001 µM): 1.03 GR
- GR value ([5]; 0.003162 µM): 1.03 GR
- GR value ([5]; 0.01 µM): 1.02 GR
- GR value ([5]; 0.03162 µM): 0.941 GR
- GR value ([5]; 0.1 µM): 0.843 GR
- GR value ([5]; 0.3162 µM): 0.626 GR
- GR value ([5]; 1 µM): 0.401 GR
- GR value ([5]; 3.162 µM): 0.284 GR
- GR value ([6]; 0.0003162 µM): 1.07 GR
- GR value ([6]; 0.001 µM): 1.12 GR
- GR value ([6]; 0.003162 µM): 1.12 GR
- GR value ([6]; 0.01 µM): 1.05 GR
- GR value ([6]; 0.03162 µM): 1.06 GR
- GR value ([6]; 0.1 µM): 1.03 GR
- GR value ([6]; 0.3162 µM): 0.933 GR
- GR value ([6]; 1 µM): 0.811 GR
- GR value ([6]; 3.162 µM): 0.688 GR
